Measured values reported in ChEMBL document CHEMBL3120075 (J Med Chem, 2014).
One block for each molecule: values may come before it.

Experiments:
Hepatitis C virus [1] = assay: Antiviral activity against HCV genotype 1b Con1 infected in human HuH7 cells assessed as inhibition of viral RNA replication after 3 days by renilla luciferase reporter gene assay; format: functional, organism-based, Hepacivirus hominis; conditions: isolate Con1, Huh-7, 72 h
Hepatitis C virus [2] = assay: Antiviral activity against HCV genotype 1a H77 infected in human HuH7 cells assessed as inhibition of viral RNA replication after 3 days by renilla luciferase reporter gene assay; format: functional, organism-based, Hepacivirus hominis; conditions: genotype 1a H77, Huh-7, 72 h
[3] = Ratio of EC50 for HCV genotype 1a to EC50 for HCV genotype 1b; format: functional
[4] = Clearance in Sprague-Dawley rat at 1 mg/kg, iv; format: ADME, organism-based; design: dose 1 mg/kg, route intravenous; conditions: in vivo
[5] = Mean residence time in Sprague-Dawley rat at 1 mg/kg, iv; format: ADME, organism-based; design: dose 1 mg/kg, route intravenous; conditions: in vivo
[6] = Mean residence time in beagle dog at 0.2 mg/kg, iv; format: ADME, organism-based, Canis lupus familiaris; design: dose 0.2 mg/kg, route intravenous; conditions: in vivo
[7] = Half life in Sprague-Dawley rat at 1 mg/kg, iv; format: ADME, organism-based; design: dose 1 mg/kg, route intravenous; conditions: in vivo
[8] = Volume of distribution at steady state in beagle dog at 0.2 mg/kg, iv; format: ADME, organism-based, Canis lupus familiaris; design: dose 0.2 mg/kg, route intravenous; conditions: in vivo, read-out: Vdss
[9] = Clearance in beagle dog at 0.2 mg/kg, iv; format: ADME, organism-based, Canis lupus familiaris; design: dose 0.2 mg/kg, route intravenous; conditions: in vivo
[10] = Oral bioavailability in Sprague-Dawley rat at 2 mg/kg; format: ADME, organism-based; conditions: in vivo
[11] = Half life in beagle dog at 0.2 mg/kg, iv; format: ADME, organism-based, Canis lupus familiaris; design: dose 0.2 mg/kg, route intravenous; conditions: in vivo
[12] = Volume of distribution at steady state in Sprague-Dawley rat at 1 mg/kg, iv; format: ADME, organism-based; design: dose 1 mg/kg, route intravenous; conditions: in vivo, read-out: Vdss
Hepatitis C virus [13] = assay: Ratio of EC50 for HCV genotype 1a H77 infected in human HuH7 cells in presence of human serum to EC50 for HCV genotype 1a H77 infected in human HuH7 cells; format: functional, Hepacivirus hominis, Huh-7
Hepatitis C virus [14] = assay: Antiviral activity against HCV genotype 1a H77 infected in human HuH7 cells assessed as inhibition of viral RNA replication after 3 days by renilla luciferase reporter gene assay in presence of 10% BSA; format: functional, organism-based, Hepacivirus hominis; conditions: genotype 1a H77, Huh-7, 72 h
Hepatitis C virus [15] = assay: Antiviral activity against HCV genotype 1a H77 infected in human HuH7 cells assessed as inhibition of viral RNA replication after 3 days by renilla luciferase reporter gene assay in presence of human serum; format: functional, organism-based, Hepacivirus hominis; conditions: genotype 1a H77, Huh-7, 72 h
Hepatitis C virus [16] = assay: Ratio of EC50 for HCV genotype 1a H77 infected in human HuH7 cells in presence of 10% BSA to EC50 for HCV genotype 1a H77 infected in human HuH7 cells; format: functional, Hepacivirus hominis, Huh-7

SMILES: COC(=O)N[C@H](C(=O)N1CCC[C@H]1c1nc2ccc(C#CC#Cc3ccc4nc([C@@H]5CCCN5C(=O)[C@@H](NC(=O)OC)C(C)C)[nH]c4c3)cc2[nH]1)C(C)C
EC50 (Hepatitis C virus [1]): 0.026 nM
EC50 (Hepatitis C virus [2]): 11 nM

SMILES: C[C@H](NC(=O)OCc1ccccc1)C(=O)Nc1cccc(C2S/C(=N\c3cccc(F)c3)N(Cc3ccco3)C2=O)c1 (stereo not given in full)
Ratio EC50 [3]: 1000
EC50 (Hepatitis C virus [1]): 580 nM

SMILES: C[C@H](NC(=O)c1ccc(Sc2ccc(N)cc2)c(Nc2ncnc3nc(C(C)(C)C)ccc23)c1)c1ccccc1
EC50 (Hepatitis C virus [1]): 3 nM
EC50 (Hepatitis C virus [2]): 46 nM

SMILES: CN(C)[C@@H](C(=O)N1CCC[C@H]1C(=O)Nc1ccc(/C=C/c2ccc(NC(=O)[C@@H]3CCCN3C(=O)[C@@H](c3ccccc3)N(C)C)cc2)cc1)c1ccccc1
EC50 (Hepatitis C virus [1]): 0.1 nM

SMILES: Cc1ccc(O)c(-c2nn(C)cc2C#Cc2ccc(NC(=O)[C@@H]3COCCN3C(=O)[C@H](NC(=O)OC(C)(C)C)c3ccccc3)cc2)c1
Ratio EC50 [3]: 1000
EC50 (Hepatitis C virus [1]): < 1000 nM

SMILES: COC(=O)N[C@H](C(=O)N1CCC[C@H]1c1nc2ccc(-c3ccc4nc([C@@H]5CCCN5C(=O)[C@@H](NC(=O)OC)C(C)C)[nH]c4c3)cc2[nH]1)C(C)C
EC50 (Hepatitis C virus [1]): 35 nM
EC50 (Hepatitis C virus [2]): > 44 nM

SMILES: COC(=O)N[C@H](C(=O)N1CCC[C@H]1c1nc2ccc(-c3ccc(-c4ccc5nc([C@@H]6CCCN6C(=O)[C@@H](NC(=O)OC)C(C)C)[nH]c5c4)s3)cc2[nH]1)C(C)C
EC50 (Hepatitis C virus [1]): 0.01 nM
EC50 (Hepatitis C virus [2]): 1.7 nM

SMILES: COC(=O)N[C@H](C(=O)N1CCC[C@H]1c1nc2ccc(C#Cc3ccc4nc([C@@H]5CCCN5C(=O)[C@@H](NC(=O)OC)C(C)C)[nH]c4c3)cc2[nH]1)C(C)C
EC50 (Hepatitis C virus [1]): 0.14 nM
EC50 (Hepatitis C virus [2]): > 44 nM

SMILES: COC(=O)N[C@H](C(=O)N1CCC[C@H]1c1ncc(-c2ccc3c(c2)C(F)(F)c2cc(-c4ccc5nc([C@@H]6CCCN6C(=O)[C@@H](NC(=O)OC)C(C)C)[nH]c5c4)ccc2-3)[nH]1)C(C)C
clearance [4]: 7 mL/min/kg
MRT [5]: 2.21 h
EC50 (Hepatitis C virus [1]): 0.003 nM
MRT [6]: 3.69 h
half-life [7]: 1.83 h
Vd [8]: 1.96 L/kg
clearance [9]: 8.83 mL/min/kg
bioavailability [10]: 36.7%
half-life [11]: 2.63 h
Vd [12]: 0.93 L/kg
EC50 (Hepatitis C virus [2]): 0.04 nM

SMILES: O=C(Nc1ccncc1)c1ccc(-c2csc(NC(=O)[C@@H]3CCCN3C(=O)OCc3ccccc3)n2)cc1
Ratio EC50 [3]: 1000
EC50 (Hepatitis C virus [1]): 80 nM

SMILES: COC(=O)N[C@H](C(=O)N1CCC[C@H]1c1nc(-c2ccc3cc(-c4ccc5[nH]c([C@@H]6CCCN6C(=O)[C@@H](NC(=O)OC)C(C)C)nc5c4)ccc3c2)c[nH]1)C(C)C
EC50 (Hepatitis C virus [1]): 0.007 nM
EC50 (Hepatitis C virus [2]): 0.071 nM

SMILES: COC(=O)N[C@H](C(=O)N1CCC[C@H]1c1nc2ccc(-c3cc4cc5sc(-c6ccc7nc([C@@H]8CCCN8C(=O)[C@@H](NC(=O)OC)C(C)C)[nH]c7c6)cc5cc4s3)cc2[nH]1)C(C)C
EC50 (Hepatitis C virus [1]): 0.016 nM
EC50 (Hepatitis C virus [2]): 0.2 nM

SMILES: COC(=O)N[C@H](C(=O)N1CCC[C@H]1c1nc2ccc(-c3ccc4cc(-c5ccc6nc([C@@H]7CCCN7C(=O)[C@@H](NC(=O)OC)C(C)C)[nH]c6c5)ccc4c3)cc2[nH]1)C(C)C
EC50 (Hepatitis C virus [1]): 0.004 nM
EC50 (Hepatitis C virus [2]): 0.11 nM

SMILES: COC(=O)N[C@H](C(=O)N1CCC[C@H]1c1nc2ccc(-c3ccc(-c4ccc(-c5ccc6nc([C@@H]7CCCN7C(=O)[C@@H](NC(=O)OC)C(C)C)[nH]c6c5)cc4)cc3)cc2[nH]1)C(C)C
EC50 (Hepatitis C virus [1]): 0.044 nM
EC50 (Hepatitis C virus [2]): 3.7 nM

SMILES: COC(=O)N[C@H](C(=O)N1CCC[C@H]1c1ncc(C#Cc2ccc(-c3ccc4nc([C@@H]5CCCN5C(=O)[C@@H](NC(=O)OC)C(C)C)[nH]c4c3)cc2)[nH]1)C(C)C
EC50 (Hepatitis C virus [1]): 0.016 nM
EC50 (Hepatitis C virus [2]): 2.5 nM

SMILES: COC(=O)N[C@H](C(=O)N1CCC[C@H]1c1ncc(-c2ccc(C#Cc3ccc4nc([C@@H]5CCCN5C(=O)[C@@H](NC(=O)OC)C(C)C)[nH]c4c3)cc2)[nH]1)C(C)C
EC50 (Hepatitis C virus [1]): 0.011 nM
EC50 (Hepatitis C virus [2]): 0.38 nM

Continued, in another order:

clearance [4]: 11.7 mL/min/kg
MRT [5]: 1.4 h
EC50 (Hepatitis C virus [1]): 0.009 nM
MRT [6]: 6.6 h
half-life [7]: 1.49 h
Vd [8]: 0.31 L/kg
clearance [9]: 0.833 mL/min/kg
bioavailability [10]: 35.2%
half-life [11]: 5.29 h
Vd [12]: 0.98 L/kg
EC50 (Hepatitis C virus [2]): 0.21 nM
SMILES: COC(=O)N[C@H](C(=O)N1CCC[C@H]1c1ncc(-c2ccc(-c3ccc(-c4cnc([C@@H]5[C@H]6CC[C@H](C6)N5C(=O)[C@@H](NC(=O)OC)C(C)C)[nH]4)cc3)cc2)[nH]1)C(C)C

clearance [4]: 17.3 mL/min/kg
MRT [5]: 1.71 h
EC50 (Hepatitis C virus [1]): 0.007 nM
MRT [6]: 3 h
half-life [7]: 1.57 h
Vd [8]: 2.31 L/kg
clearance [9]: 13 mL/min/kg
bioavailability [10]: 11.5%
half-life [11]: 2.3 h
Vd [12]: 1.76 L/kg
EC50 (Hepatitis C virus [2]): 0.17 nM
SMILES: COC(=O)N[C@H](C(=O)N1CCC[C@H]1c1ncc(-c2ccc(-c3ccc(-c4ccc5nc([C@@H]6CCCN6C(=O)[C@@H](NC(=O)OC)C(C)C)[nH]c5c4)cc3)cc2)[nH]1)C(C)C

EC50 (Hepatitis C virus [14]): 0.784 nM
EC50 (Hepatitis C virus [15]): 0.784 nM
EC50 (Hepatitis C virus [1]): 0.004 nM
EC50 (Hepatitis C virus [2]): 0.056 nM
SMILES: COC(=O)N[C@H](C(=O)N1CCC[C@H]1c1ncc(-c2ccc3c(c2)C(F)(F)c2cc(-c4ccc5nc([C@@H]6[C@H]7CC[C@H](C7)N6C(=O)[C@@H](NC(=O)OC)C(C)C)[nH]c5c4)ccc2-3)[nH]1)C(C)C
Ratio EC50 (Hepatitis C virus [13]): 14
Ratio EC50 (Hepatitis C virus [16]): 14

EC50 (Hepatitis C virus [1]): 0.014 nM
EC50 (Hepatitis C virus [2]): 1.2 nM
SMILES: COC(=O)N[C@H](C(=O)N1CCC[C@H]1c1ncc(-c2ccc3c(c2)C(C)(C)c2cc(-c4cnc([C@@H]5CCCN5C(=O)[C@@H](NC(=O)OC)C(C)C)[nH]4)ccc2-3)[nH]1)C(C)C

clearance [4]: 12.5 mL/min/kg
MRT [5]: 2.42 h
EC50 (Hepatitis C virus [1]): 0.006 nM
MRT [6]: 5.47 h
half-life [7]: 2.07 h
Vd [8]: 2.03 L/kg
clearance [9]: 6.67 mL/min/kg
bioavailability [10]: 26.3%
half-life [11]: 4.01 h
Vd [12]: 1.81 L/kg
EC50 (Hepatitis C virus [2]): 0.16 nM
SMILES: COC(=O)N[C@H](C(=O)N1CCC[C@H]1c1ncc(-c2ccc(-c3ccc(-c4ccc5nc([C@@H]6[C@H]7CC[C@H](C7)N6C(=O)[C@@H](NC(=O)OC)C(C)C)[nH]c5c4)cc3)cc2)[nH]1)C(C)C

EC50 (Hepatitis C virus [1]): 0.003 nM
EC50 (Hepatitis C virus [2]): 0.2 nM
SMILES: COC(=O)N[C@H](C(=O)N1CCC[C@H]1c1ncc(-c2ccc(-c3ccc(-c4ccc5nc([C@@H]6CCCN6C(=O)[C@@H](NC(=O)OC)C(C)C)[nH]c5c4)s3)cc2)[nH]1)C(C)C

EC50 (Hepatitis C virus [1]): 0.3 nM
EC50 (Hepatitis C virus [2]): > 44 nM
SMILES: COC(=O)N[C@H](C(=O)N1CCC[C@H]1c1ncc(-c2ccc(-c3ccc4nc([C@@H]5CCCN5C(=O)[C@@H](NC(=O)OC)C(C)C)[nH]c4c3)cc2)[nH]1)C(C)C

EC50 (Hepatitis C virus [1]): 0.009 nM
EC50 (Hepatitis C virus [2]): 0.5 nM
SMILES: COC(=O)N[C@H](C(=O)N1CCC[C@H]1c1nc2ccc(-c3ccc(-c4ccc5nc([C@@H]6CCCN6C(=O)[C@@H](NC(=O)OC)C(C)C)[nH]c5c4)cc3)cc2[nH]1)C(C)C

EC50 (Hepatitis C virus [1]): 0.018 nM
EC50 (Hepatitis C virus [2]): 0.3 nM
SMILES: COC(=O)N[C@H](C(=O)N1CCC[C@H]1c1ncc(-c2ccc3c(c2)C(=O)c2cc(-c4cnc([C@@H]5CCCN5C(=O)[C@@H](NC(=O)OC)C(C)C)[nH]4)ccc2-3)[nH]1)C(C)C

EC50 (Hepatitis C virus [1]): 0.021 nM
EC50 (Hepatitis C virus [2]): 0.66 nM
SMILES: COC(=O)N[C@H](C(=O)N1CCC[C@H]1c1nc2ccc(-c3ccc(-c4ccc(-c5cnc([C@@H]6[C@H]7CC[C@H](C7)N6C(=O)[C@@H](NC(=O)OC)C(C)C)[nH]5)cc4)cc3)cc2[nH]1)C(C)C

EC50 (Hepatitis C virus [1]): 0.005 nM
EC50 (Hepatitis C virus [2]): 0.45 nM
SMILES: COC(=O)N[C@H](C(=O)N1CCCC[C@H]1c1ncc(-c2ccc(-c3ccc(-c4cnc([C@@H]5CCCN5C(=O)[C@@H](NC(=O)OC)C(C)C)[nH]4)cc3)cc2)[nH]1)C(C)C

EC50 (Hepatitis C virus [1]): 0.013 nM
EC50 (Hepatitis C virus [2]): 0.094 nM
SMILES: COC(=O)N[C@H](C(=O)N1CCC[C@H]1c1ncc(-c2ccc3c(c2)Cc2cc(-c4cnc([C@@H]5CCCN5C(=O)[C@@H](NC(=O)OC)C(C)C)[nH]4)ccc2-3)[nH]1)C(C)C
